Laboratory results from patent US20210308143A1, “COMPOSITIONS AND METHODS FOR REDUCING BODY FAT” (Topokine Therapeutics, Inc., priority 2006, published 2021).
“Also recorded” adds a separate entry of the source.

Columns and labels:
[1] = system: 3T3-L1 preadipocytes and mature adipocytes; assay: MTS test for cell viability; format: cell-based, mouse
Method: (§1) Preparation of preadipocytes. 3T3-L1 mouse embryo fibroblasts are obtained and cultured. Cells are cultured at 37° C. in a humidified 5% CO2 atmosphere and grown in Dulbecco's modified Eagle's medium (DMEM) with 10% bovine calf serum. Confluency is induced for 2 days (Days −1 and 0) and preadipocytes are cultured in DMEM with 10% fetal bovine serum (FBS/DMEM) medium, supplemented with 167 nM insulin, […] isobutylmethylxanthine, and 1 μM dexamethasone for 2 days (Days 1 and 2).
Preparation (induction) of mature adipocytes from preadipocytes. Preadipocytes prepared as above are then maintained in a culture medium with 167 nM insulin supplement for another 2 days (Days 3 and 4), followed by culturing with 10% FBS/DMEM medium for an additional 4 days (Days 5-8), at which time >90% of the cells are expected to have differentiated and matured into adipocytes with accumulated fat droplets. All media contains 100 U/mL penicillin, 100 μg/mL streptomycin, and 292 μg of L-glutamine/mL. […]
Test for cell viability. […] The plate is analyzed by spectrometry at a wavelength of 490 nm, which is an absorbance peak for formazan. The quantity of formazan as measured by absorbance at 490 nm is a directly proportional to the number of viable cells.

[2] = system: mature adipocytes (from 3T3-L1); assay: Laser scanning cytometry (annexin V/PI) test for apoptosis; format: cell-based, mouse; settings: 24 hours
Method: as §1
(§2) Preparation (induction) of mature adipocytes from preadipocytes. Preadipocytes prepared as above are then maintained in a culture medium with 167 nM insulin supplement for another 2 days (Days 3 and 4), followed by culturing with 10% FBS/DMEM medium for an additional 4 days (Days 5-8), at which time >90% of the cells are expected to have differentiated and matured into adipocytes with accumulated fat droplets. All media contains 100 U/mL penicillin, 100 μg/mL streptomycin, and 292 μg of L-glutamine/mL.
All experiments, except where otherwise indicated, are performed with bimatoprost added to the culture medium for a final concentration of 0%, 0.003%, 0.03%, or 0.3% for a duration of 3, 6, 12, or 24 hours [with 1:1000 dimethyl sulfoxide (DMSO)]. […]
Test for apoptosis (1). […] Apoptotic cells fluoresce and are detected by LSC, since AV binds specifically to phosphatidylserine in the disrupted plasma membrane. […]

[3] = system: 3T3-L1 preadipocytes and mature adipocytes; assay: TUNEL imaging test for apoptosis; format: cell-based, mouse
Method: as §1, §2
Test for apoptosis (2). Terminal Deoxynucleotidyl Transferase dUTP Nick-End Labeling (TUNEL) Imaging is one of the most common assays for apoptosis. […] Apoptosis manifests as fluorescence upon microscopic examination, which reflects the antibody-labeled BrdU incorporated at the cleaved portions of DNA.

3T3-L1 preadipocytes = assay: Oil-Red-O test for differentiation of preadipocytes into mature adipocytes; format: cell-based, mouse
Method: as §1, §2
Test for differentiation of preadipocytes into mature adipocytes. Oil-Red-O, a specific lipid stain, is used to test the effect of bimatoprost on adipogenesis. […] For each dish, multiple images are taken and analyzed for average lipid droplet size, percentage lipid area, and total droplet number with software. […]

[4] = system: laboratory rodents (hairless rats or nude mice); assay: In vivo rodent study, daily topical ointment on abdominal skin; settings: daily topical ointment 0.003-0.3%, six months
Method: Animal preparation. Genetically uniform laboratory rodents (for example, hairless rats or nude mice) are used. They are adult laboratory rodents similar in size at the commencement of the study (approximately postnatal week 15 for rats). Multiple animals are tested. Animals randomized to bimatoprost are housed separately from control animals but are kept in the same room under identical environmental conditions. All animals are fed a standard diet, appropriate for the species, ad libidum.
Method. In all cases the vehicle is a compatible ointment, such as petrolatum, with a final bimatoprost concentration of 0%, 0.003%, 0.03%, or 0.3%. A fixed amount of ointment, for example 1 gram, is applied daily in a thin film over a uniform surface area of the abdominal skin of each animal. Each animal is randomized to a daily application of a dose of topical bimatoprost or vehicle alone. On a weekly basis, total body mass of each animal is determined on a scale. Total body fat is estimated by any of the several methods established for this purpose, for example, water displacement (Dahms et al. (1982) J NUTR. 112: 398-400), isotopic dilution (Culebras et al. (1977) J. PHYSIOL. 232: R60-65), Total Body Electrical Conductance (TOBEC) (Baer et al. (1993) PHYSIOL. BEHAV. 53: 1195-99), Dual-Energy X-Ray Absorptiometry (DEXA) (Bertin et al. (1998) J NUTRITION 128: 1550-54), or Nuclear Magnetic Resonance (NMR) (Kunnecke et al. (2004) OBES RES. 12: 1604-151. Animals are maintained and monitored in this fashion for six months, at which point they are sacrificed.
Analysis and Results. Abdominal fat pads of the sacrificed animals are excised and measured directly for mass and volume. Direct carcass analysis with chemical extraction may be further performed (Frisch et al. (1977) PNAS 74: 379-383). All results are normalized with reference to baseline values and then compared between bimatoprost and control groups.

human subjects = assay: In vivo human randomized double-blind study, topical ointment over triceps; settings: daily petrolatum ointment 0.003-0.3%, 6 months
Text: Multiple human subjects (both male and female), for example, with body mass indices of 30 or more but otherwise healthy, are entered into a randomized double-blind study. Either the left or the right arm is randomized to receive topical bimatoprost; the other arm receives vehicle only. Bimatoprost is supplied in a petrolatum-based ointment (the vehicle) at a final concentration of 0%, 0.003%, 0.03% or 0.3%. Ointment containers are unlabeled as to the presence or concentration of bimatoprost. Each day, subjects apply a thin film of ointment to the skin over the respective triceps while wearing new, clean surgical gloves. Subjects are instructed to refrain from washing the treated area for at least 8 hours and are instructed to refrain from wearing tight clothing or occlusive dressings that will come into contact with the treated area. Body fat calipers are used to measure fat in the triceps region bilaterally on a weekly basis. The study continues for 6 months. […] As a result, this contemplated outcome will show, in vivo, that compounds according to the present invention, including bimatoprost, can reduce fat.

human patients = assay: Clinical application examples (Examples 4-8), local bimatoprost to reduce fat deposits; format: in vivo; settings: for fat pad between shoulders / fatty deposits on cheeks: daily ointment to face and between shoulders
Text: In light of the foregoing description, the specific non-limiting examples presented below are for illustrative purposes and not intended to limit the scope of the invention in any way. In Examples 4-8, various modes of non-systemic administration of a cyclopentane heptanoic acid, 2-arylalkyl or cycloalkyl compound or derivative thereof can be used, for example, by topical application (ointment, cream, or transdermal patch), subcutaneous injection, intramuscular injection, or intralesional injection, any of which may involve a controlled (or sustained) release formulation or depot. In addition to medical therapy, the person's physician recommends a regimen of diet and exercise. After six months the person is unable to lose weight. The physician prescribes daily topical application of a bimatoprost ointment to the abdomen as treatment for central obesity. […] The person's physician prescribes a daily application of a bimatoprost ointment to the face and between the shoulders as treatment for the fat deposits. […] The person's physician prescribes a daily application of a bimatoprost ointment to the face and between the shoulders as treatment for the fat deposits. […] The plastic surgeon prescribes a daily application of a bimatoprost ointment to the hips and thighs as treatment for the fat deposits. […] The doctor prescribes an ophthalmic preparation of bimatoprost daily to both eyes as a treatment for the proptosis and exposure symptoms.

human eye = settings: eyedrops, glaucoma, cited from earlier work
[5] = preadipocytes and/or mature adipocytes
[6] = Example 4, obese person, daily ointment to abdomen
[7] = Example 5, Cushing syndrome secondary to prednisone
[8] = Example 6, HIV-related lipodystrophy
[9] = Example 8, Grave's disease orbitopathy, ophthalmic preparation daily to both eyes

With CCNC(=O)CCC/C=C\C[C@@H]1[C@@H](/C=C/[C@@H](O)CCc2ccccc2)[C@H](O)C[C@@H]1O [bimatoprost, cyclopentane N-ethyl heptenamide-5-cis-2-(3α-hydroxy-5-phenyl-1-trans-pentenyl)-3,5-dihydroxy, [1α, 2β, 3α, 5α]] the “absorbance at 490 nm on MTS testing, treated cells compared to control cells” value ([1]; bimatoprost 0.003%, 0.03% or 0.3%, up to 24 hours, vs DMSO control) was “lower absorbance at 490 nm”, the “rates of viability compared to control samples” value [1, 5] was “lower rates of viability” and the “AV-labeled and/or PI-labeled cells on laser scanning cytometry compared to control samples” value [2] was “more AV-labeled and/or PI-labeled (apoptotic or dead) cells”. For the same compound, the “BrdU-antibody-labeled cells on TUNEL imaging compared to control samples” value ([3]; preadipocytes and mature adipocytes, 24 hours) was “more BrdU-antibody-labeled (fluorescent) cells”, the “rates of apoptosis compared to control samples” value [3, 5] was “higher rates of apoptosis” and the “lipid droplets on Oil-Red-O staining compared to control samples” value (3T3-L1 preadipocytes; bimatoprost 0.003%, 0.03%, and 0.3% μM added with induction medium) was “smaller and fewer lipid droplets”. For the same compound, the “rates of differentiation into mature adipocytes compared to control samples” value (3T3-L1 preadipocytes; preadipocytes) was “lower rates of differentiation into mature adipocytes”, the “subcutaneous (abdominal) fat mass compared to control animals” value [4] was “lower subcutaneous (abdominal) fat mass” and the “total body fat mass compared to control animals” value [4] was “lower total body fat mass”. For the same compound, the “total body mass compared to control animals” value [4] was “lower total body mass”, the “fat in treated body area (triceps, calipers) compared to vehicle-treated area” value (human subjects) was “lower fat” and the BMI (human patients; [6]) was “BMI is reduced”. For the same compound, the abdominal fat deposits (human patients; [6]) was “abdominal fat deposits are reduced”, the “fat pad between shoulders” value (human patients; [7]) was “fat pad between their shoulders is reduced” and the “fatty deposits on cheeks” value (human patients; [7]) was “fatty deposits on the person's cheeks are reduced”. The “fat pad between shoulders” value (human patients; [8]) was “fat pad between their shoulders is reduced”, the “fatty deposits on cheeks” value (human patients; [8]) was “fatty deposits on the person's cheeks are reduced” and the “fatty deposits on hips and/or thighs” value (human patients; Example 7, daily ointment to hips and thighs) was “fatty deposits on the person's hips and/or thighs are reduced”. For the same compound, the “condition (proptosis and exposure symptoms)” value (human patients; [9]) was “their condition improves”, the orbital fat (human patients; [9]) was “orbital fat is reduced” and the unwanted side-effects (human eye; Peplinski et al. (2004)) was “periocular pigmentary changes involving the eyelid; also recorded: deepening of the lid sulcus”. The intraocular pressure (human eye) was “decrease intraocular pressure”.
